From patent publication US20250221410A1, “SUBSTITUTED 2-C-AZINES AND SALTS THEREOF, AND USE THEREOF AS HERBICIDAL ACTIVE SUBSTANCES” (BAYER AKTIENGESELLSCHAFT, priority 2022, published 2025)

Columns and labels:
Assay type in all cases: in vivo
[1] = system: ABUTH: Abutilon theophrasti; test: Post-emergence herbicidal efficacy at 1280 g/ha, ABUTH; details: rated visually after about 3 weeks vs untreated controls, 100% = plants have died, 0% = like control plants
Method in brief: (§1)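 Greenhouse post-emergence spray: one-leaf stage, 2–3 wk after sowing; WP/EC as aqueous suspension/emulsion + 0.5% additive, 600 L/ha water. Visual % activity vs untreated at ~3 wk; 100% = dead, 0% = as control.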

[2] = system: AMARE: Amaranthus retroflexus; test: Post-emergence herbicidal efficacy at 1280 g/ha, AMARE; details: rated visually after about 3 weeks vs untreated controls, 100% = plants have died, 0% = like control plants
Method in brief: as §1

[3] = system: DIGSA: Digitaria sanguinalis; test: Post-emergence herbicidal efficacy at 1280 g/ha, DIGSA; details: rated visually after about 3 weeks vs untreated controls, 100% = plants have died, 0% = like control plants
Procedure: (§2) Seeds of mono- and dicotyledonous weed plants were placed in plastic pots in sandy loam soil (doubly sown with in each case one species of mono- or dicotyledonous weed plants per pot), covered with soil and cultivated in a greenhouse under controlled growth conditions. 2 to 3 weeks after sowing, the test plants were treated at the one-leaf stage. The compounds of the invention, formulated in the form of wettable powders (WP) or as emulsion concentrates (EC), were applied to the green parts of the plants as aqueous suspension or emulsion with addition of 0.5% additive at a water application rate equivalent to 600 litres per hectare. After the test plants had been kept in the greenhouse under optimum growth conditions for about 3 weeks, the activity of the preparations was rated visually in comparison to untreated controls. For example, 100% activity=the plants have died, 0% activity=like control plants. Tables A1 to A12 below show the effects of selected compounds of the general formula (I) according to Table 1 on various harmful plants and at an application rate corresponding to 1280 g/ha, which were obtained by the trial procedure specified above.

[4] = system: KCHSC: Kochia scoparia; test: Post-emergence herbicidal efficacy at 1280 g/ha, KCHSC; details: visual rating about 3 weeks after treatment vs untreated controls
Method in brief: as §1

[5] = system: POAAN: Poa annua; test: Post-emergence herbicidal efficacy at 1280 g/ha, POAAN; details: visual rating about 3 weeks after treatment vs untreated controls
Method in brief: as §1

[6] = system: STEME: Stellaria media; test: Post-emergence herbicidal efficacy at 1280 g/ha, STEME; details: visual rating about 3 weeks after treatment vs untreated controls
Method in brief: as §1

[7] = system: VERPE: Veronica persica; test: Post-emergence herbicidal efficacy at 1280 g/ha, VERPE; details: visual rating about 3 weeks after treatment vs untreated controls
Method in brief: as §1

[8] = system: AMARE: Amaranthus retroflexus; test: Pre-emergence herbicide efficacy at 1280 g/ha, AMARE; details: visual scoring after about 3 weeks vs untreated controls
Method in brief: (§3)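 Visual scoring after about 3 weeks in the greenhouse, as percent activity relative to untreated pots, where 0% matches controls and 100% means dead plants. Treatment was pre-emergence: WP or EC formulations sprayed onto soil covering the sown seeds, 600 L/ha water plus 0.5% additive.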

[9] = system: DIGSA: Digitaria sanguinalis; test: Pre-emergence herbicide efficacy at 1280 g/ha, DIGSA; details: visual scoring after about 3 weeks vs untreated controls
Method in brief: as §3

[10] = system: ECHCG: Echinochloa crus-galli; test: Pre-emergence herbicide efficacy at 1280 g/ha, ECHCG; details: visual scoring after about 3 weeks vs untreated controls
Source text: (§4) Seeds of mono- and dicotyledonous weed plants were placed in plastic pots in sandy loam soil (doubly sown with one species each of mono- or dicotyledonous weed plants per pot) and covered with soil. The compounds of the invention, formulated in the form of wettable powders (WP) or as emulsion concentrates (EC), were then applied to the surface of the covering soil as aqueous suspension or emulsion with addition of 0.5% additive at a water application rate of 600 litres per hectare (converted). After the treatment, the pots were placed in a greenhouse and kept under good growth conditions for the test plants. After about 3 weeks, the efficacy of the preparations was scored visually in comparison with untreated controls as percentages. For example, 100% activity=the plants have died, 0% activity=like control plants. Tables C1 to C12 below show the effects of selected compounds of the general formula (I) according to Table 1 on various harmful plants and at an application rate corresponding to 1280 g/ha, which were obtained by the trial procedure specified above.

[11] = system: KCHSC: Kochia scoparia; test: Pre-emergence herbicide efficacy at 1280 g/ha, KCHSC; details: visual scoring after about 3 weeks vs untreated controls
Source text: as §4

[12] = system: POAAN: Poa annua; test: Pre-emergence herbicide efficacy at 1280 g/ha, POAAN; details: visual scoring after about 3 weeks vs untreated controls
Method in brief: as §3

[13] = system: SETVI: Setaria viridis; test: Pre-emergence herbicide efficacy at 1280 g/ha, SETVI; details: visual scoring vs untreated controls
Method in brief: as §3

[14] = system: ECHCG: Echinochloa crus-galli; test: Post-emergence herbicidal efficacy at 1280 g/ha, ECHCG; details: rated visually after about 3 weeks vs untreated controls, 100% = plants have died, 0% = like control plants
Procedure: as §2

[15] = system: SETVI: Setaria viridis; test: Post-emergence herbicidal efficacy at 1280 g/ha, SETVI; details: visual rating about 3 weeks after treatment vs untreated controls
Procedure: as §2

[16] = system: ABUTH: Abutilon theophrasti; test: Pre-emergence herbicide efficacy at 1280 g/ha, ABUTH; details: visual scoring after about 3 weeks vs untreated controls
Method in brief: as §3

[17] = system: VERPE: Veronica persica; test: Pre-emergence herbicide efficacy at 1280 g/ha, VERPE; details: visual scoring vs untreated controls
Source text: as §4

[18] = system: STEME: Stellaria media; test: Pre-emergence herbicide efficacy at 1280 g/ha, STEME; details: visual scoring vs untreated controls
Method in brief: as §3

FC(F)(F)CCCc1ccccc1Cc1ncc(Cl)cn1 [Example 1-1]
Post-emergence efficacy at 1280 g/ha against ABUTH in % [1]: 90% | Post-emergence efficacy at 1280 g/ha against AMARE in % [2]: 100% | Post-emergence efficacy at 1280 g/ha against DIGSA in % [3]: 90% | Post-emergence efficacy against KCHSC [4]: 90% | Post-emergence efficacy against POAAN [5]: 90% | Post-emergence efficacy against STEME [6]: 100% | Post-emergence efficacy against VERPE [7]: 100% | Pre-emergence efficacy against AMARE [8]: 100% | Pre-emergence efficacy against DIGSA [9]: 100% | Pre-emergence efficacy against ECHCG [10]: 90% | Pre-emergence efficacy against KCHSC [11]: 90% | Pre-emergence efficacy against POAAN [12]: 90% | Pre-emergence efficacy against SETVI in % [13]: 90%

Fc1ccc(-c2ccccc2Cc2ncc(Cl)cn2)cc1F [Example 1-26]
Post-emergence efficacy at 1280 g/ha against ABUTH in % [1]: 100% | Post-emergence efficacy at 1280 g/ha against AMARE in % [2]: 100% | Post-emergence efficacy at 1280 g/ha against DIGSA in % [3]: 90% | Post-emergence efficacy at 1280 g/ha against ECHCG in % [14]: 90% | Post-emergence efficacy against KCHSC [4]: 100% | Post-emergence efficacy against POAAN [5]: 90% | Post-emergence efficacy against SETVI [15]: 90% | Post-emergence efficacy against STEME [6]: 100% | Post-emergence efficacy against VERPE [7]: 100% | Pre-emergence efficacy against ABUTH [16]: 90% | Pre-emergence efficacy against AMARE [8]: 100% | Pre-emergence efficacy against DIGSA [9]: 100% | Pre-emergence efficacy against ECHCG [10]: 90% | Pre-emergence efficacy against KCHSC [11]: 100% | Pre-emergence efficacy against POAAN [12]: 100% | Pre-emergence efficacy against SETVI in % [13]: 90%

Fc1cnc(Cc2ccccc2-c2ccc(F)c(F)c2)nc1 [Example 1-27]
Post-emergence efficacy at 1280 g/ha against ABUTH in % [1]: 90% | Post-emergence efficacy at 1280 g/ha against AMARE in % [2]: 100% | Post-emergence efficacy at 1280 g/ha against DIGSA in % [3]: 90% | Post-emergence efficacy against KCHSC [4]: 90% | Post-emergence efficacy against POAAN [5]: 90% | Post-emergence efficacy against SETVI [15]: 90% | Post-emergence efficacy against STEME [6]: 90% | Post-emergence efficacy against VERPE [7]: 90% | Pre-emergence efficacy against ABUTH [16]: 100% | Pre-emergence efficacy against AMARE [8]: 100% | Pre-emergence efficacy against DIGSA [9]: 100% | Pre-emergence efficacy against ECHCG [10]: 90% | Pre-emergence efficacy against KCHSC [11]: 90% | Pre-emergence efficacy against POAAN [12]: 90% | Pre-emergence efficacy against SETVI in % [13]: 100% | Pre-emergence efficacy against VERPE in % [17]: 100%

Fc1ccc(Oc2c(Br)cccc2Cc2ncc(Cl)cn2)cc1 [Example 1-37]
Post-emergence efficacy at 1280 g/ha against ABUTH in % [1]: 100% | Post-emergence efficacy at 1280 g/ha against AMARE in % [2]: 100% | Post-emergence efficacy at 1280 g/ha against DIGSA in % [3]: 90% | Post-emergence efficacy at 1280 g/ha against ECHCG in % [14]: 100% | Post-emergence efficacy against KCHSC [4]: 100% | Post-emergence efficacy against POAAN [5]: 100% | Post-emergence efficacy against STEME [6]: 90% | Post-emergence efficacy against VERPE [7]: 100% | Pre-emergence efficacy against AMARE [8]: 100% | Pre-emergence efficacy against DIGSA [9]: 100% | Pre-emergence efficacy against ECHCG [10]: 90% | Pre-emergence efficacy against POAAN [12]: 90% | Pre-emergence efficacy against SETVI in % [13]: 100% | Pre-emergence efficacy against STEME in % [18]: 90%

N#Cc1cccc(Cc2ncc(Cl)cn2)c1Oc1ccc(F)cc1 [Example 1-38]
Post-emergence efficacy at 1280 g/ha against ABUTH in % [1]: 100% | Post-emergence efficacy at 1280 g/ha against AMARE in % [2]: 100% | Post-emergence efficacy at 1280 g/ha against DIGSA in % [3]: 90% | Post-emergence efficacy at 1280 g/ha against ECHCG in % [14]: 100% | Post-emergence efficacy against KCHSC [4]: 100% | Post-emergence efficacy against POAAN [5]: 90% | Post-emergence efficacy against SETVI [15]: 90% | Post-emergence efficacy against STEME [6]: 100% | Post-emergence efficacy against VERPE [7]: 100% | Pre-emergence efficacy against AMARE [8]: 100% | Pre-emergence efficacy against DIGSA [9]: 100% | Pre-emergence efficacy against ECHCG [10]: 100% | Pre-emergence efficacy against POAAN [12]: 100% | Pre-emergence efficacy against SETVI in % [13]: 100% | Pre-emergence efficacy against STEME in % [18]: 100% | Pre-emergence efficacy against VERPE in % [17]: 100%

Fc1cnc(Cc2ccccc2Oc2ncc(Cl)cc2F)nc1 [Example 1-90]
Post-emergence efficacy at 1280 g/ha against ABUTH in % [1]: 90% | Post-emergence efficacy at 1280 g/ha against AMARE in % [2]: 100% | Post-emergence efficacy at 1280 g/ha against DIGSA in % [3]: 90% | Post-emergence efficacy against KCHSC [4]: 100% | Post-emergence efficacy against POAAN [5]: 100% | Post-emergence efficacy against STEME [6]: 90% | Post-emergence efficacy against VERPE [7]: 100% | Pre-emergence efficacy against ABUTH [16]: 100% | Pre-emergence efficacy against AMARE [8]: 100% | Pre-emergence efficacy against DIGSA [9]: 100% | Pre-emergence efficacy against ECHCG [10]: 100% | Pre-emergence efficacy against KCHSC [11]: 100% | Pre-emergence efficacy against POAAN [12]: 100% | Pre-emergence efficacy against SETVI in % [13]: 90% | Pre-emergence efficacy against STEME in % [18]: 90% | Pre-emergence efficacy against VERPE in % [17]: 100%

Fc1ccc(Sc2ccccc2Cc2ncc(Cl)cn2)cc1 [Example 1-99]
Post-emergence efficacy at 1280 g/ha against ABUTH in % [1]: 90% | Post-emergence efficacy at 1280 g/ha against AMARE in % [2]: 100% | Post-emergence efficacy at 1280 g/ha against DIGSA in % [3]: 90% | Post-emergence efficacy at 1280 g/ha against ECHCG in % [14]: 100% | Post-emergence efficacy against KCHSC [4]: 100% | Post-emergence efficacy against POAAN [5]: 100% | Post-emergence efficacy against SETVI [15]: 90% | Post-emergence efficacy against STEME [6]: 100% | Post-emergence efficacy against VERPE [7]: 90% | Pre-emergence efficacy against ABUTH [16]: 90% | Pre-emergence efficacy against AMARE [8]: 100% | Pre-emergence efficacy against DIGSA [9]: 100% | Pre-emergence efficacy against ECHCG [10]: 100% | Pre-emergence efficacy against POAAN [12]: 100% | Pre-emergence efficacy against SETVI in % [13]: 100% | Pre-emergence efficacy against STEME in % [18]: 100%
